{"source": "patent US20260158102A1", "about": "“CYCLIC PEPTIDE DERIVATIVE COMPOSITION FOR TREATING OR PREVENTING NEUROPATHIC PAIN AND/OR INFLAMMATORY PAIN” (DKS Co. Ltd., priority 2022, published 2026)", "key": {"[1]": {"system": "STZ-induced diabetic rats", "assay": "von Frey test in rat STZ-induced diabetes model", "format": "in vivo", "settings": "for 50% withdrawal threshold by von Frey test: mean ± SE, n=10", "experimental": "The activity of the compound of the present disclosure was evaluated according to the following procedure.\n(§1) Compound 9 (50 mg/mL) was diluted with water for injection to obtain a 1 mg/mL administration specimen. For the specimens to be administered at 0.1 mg/mL and 0.01 mg/mL, the specimen to be administered at 1 mg/mL was diluted stepwise with water for injection. Each administration specimen was divided into PP disposable tubes every day and stored in a storehouse (freezer: MDF-MU339H-PJ, PHC Corporation) under the condition of freezing (−30° C. to −20° C., measured value: −26.4 to −24.5° C.). Preparation was performed on the day before the start of administration.\n(§2) Water for injection was added to and dissolved in Pregabalin taken out from the capsule to obtain 2 mg/mL. It was prepared before use.\n(§3) • Animal species: rat (SPF) • Strain: Crl: CD (SD) • Date of animal acquisition, gender, age in weeks, number of animals acquired, and weight range after 1 day of acquisition • First and second courses: Apr. 6, 2022, male, 7 weeks old, 35 animals, 217 to 237 g • Third and fourth courses: Apr. 13, 2022, male, 7 weeks old, 35 animals, 216 to 235 g • Source: […].\nAmong the animals having a 50% withdrawal threshold of 8 g or more in the von Frey test measured during the preliminary breeding period, two animals from young animals with animal numbers were assigned to non-diabetes-induced animals, and the remaining animals were assigned to diabetes-induced animals.\nAmong the diabetes-induced animals, animals having a blood glucose level of 300 mg/dL or less were excluded from the grouping subjects, and were grouped using a computer program (IBUKI, Nihon Bioresearch Center, Inc.) so that the body weight and the average blood glucose level of each group were approximately equal. That is, the animals for the first and second courses and the third and fourth courses were grouped into one non-diabetes animal for Group 1, and 5 […] animals for Groups 2 to 6. Note that the grouping was performed so that there were 4 examples in Group 1 and 10 examples in each of Groups 2 to 6.\n• Administration method: Using a syringe (Terumo Corporation) equipped with a 25 G winged injection needle (Terumo Corporation), tail vein administration was performed. Note that a 0.75 mmol/L CAB solution was administered to a non-diabetes-induced control group.\n(§4) • Dose volume: calculated at 2 mL/kg based on the body weight on the day of administration. • Number of times of administration: once • Day of administration: 7 days before the day of starting administration of the test substance.\n• Administration method: Using a syringe (Terumo Corporation) equipped with a 25 G winged injection needle (Terumo Corporation), tail vein administration was performed. Note that physiological saline was administered to the non-diabetes control group and the diabetes control group.\n(§5) • Dose volume: calculated at 1 mL/kg based on the body weight on the day of administration. • Number of times of administration: 9 times • Interval of administration: once every 3 days (evaluation was performed on the day after administration) • Day of starting administration: day 8 of STZ administration (day of STZ administration is counted as day 1).\n• Administration method: Using a polypropylene disposable syringe (Terumo Corporation) equipped with a metal oral zonde for a rat (Fuchigami kikai Ltd.), forced oral administration was performed.\n• Dose volume: calculated at 10 mL/kg based on the body weight on the day of administration. • Number of times of administration: Administration was performed once on the day of evaluation of neuropathic pain, twice in total, and on the other days of administration, a vehicle for a control substance (water for injection) was orally administered. […]"}, "[2]": {"assay": "Observation of general condition in rat STZ-induced diabetes model", "format": "in vivo", "settings": "20 mg/kg oral, number of animals, 10 per group", "experimental": "as §1, §2, §3, §4, §5\n• Dose volume: calculated at 10 mL/kg based on the body weight on the day of administration. • Number of times of administration: Administration was performed once on the day of evaluation of neuropathic pain, twice in total, and on the other days of administration, a vehicle for a control substance (water for injection) was orally administered.\n• Observation of general condition • Observation was performed once a day."}}, "data": [{"smiles": "CC(C)C[C@H](CN)CC(=O)O", "note": "[Pregabalin, reference compound]", "values": [{"measurement": "50% withdrawal threshold by von Frey test", "setting": "[1]; 20 mg/kg oral group, Pre: before STZ administration", "result": "12.7 ± 0.7", "unit": "g"}, {"measurement": "50% withdrawal threshold by von Frey test", "setting": "[1]; 20 mg/kg oral, 3 hours after administration, day 14 of STZ administration", "result": "14.5 ± 0.5", "unit": "g"}, {"measurement": "50% withdrawal threshold by von Frey test", "setting": "[1]; 20 mg/kg oral, 3 hours after administration, day 28 of STZ administration", "result": "14.1 ± 0.7", "unit": "g"}, {"measurement": "change in the 50% withdrawal threshold (von Frey test)", "setting": "[1]; 20 mg/kg oral, both 14 days and 28 days after STZ administration, as compared with the diabetes control group", "result": "significant increase"}, {"measurement": "general condition", "setting": "[2]; day 1 of STZ administration", "result": 10}, {"measurement": "general condition", "setting": "[2]; day 2 of STZ administration", "result": 10}, {"measurement": "general condition", "setting": "[2]; day 3 of STZ administration", "result": 10}, {"measurement": "general condition", "setting": "[2]; day 4 of STZ administration", "result": 10}, {"measurement": "general condition", "setting": "[2]; day 5 of STZ administration", "result": 10}, {"measurement": "general condition", "setting": "[2]; day 6 of STZ administration", "result": 10}, {"measurement": "general condition", "setting": "[2]; day 7 of STZ administration", "result": 10}, {"measurement": "general condition", "setting": "[2]; day 8 of STZ administration", "result": 10}, {"measurement": "general condition", "setting": "[2]; day 9 of STZ administration", "result": 10}, {"measurement": "general condition", "setting": "[2]; day 10 of STZ administration", "result": 10}, {"measurement": "general condition", "setting": "[2]; day 11 of STZ administration", "result": 10}, {"measurement": "general condition", "setting": "[2]; day 12 of STZ administration", "result": 10}, {"measurement": "general condition", "setting": "[2]; day 13 of STZ administration", "result": 10}, {"measurement": "general condition", "setting": "[2]; day 14 of STZ administration", "result": 10}, {"measurement": "general condition", "setting": "[2]; day 15 of STZ administration", "result": 10}, {"measurement": "general condition", "setting": "[2]; day 16 of STZ administration", "result": 10}, {"measurement": "general condition", "setting": "[2]; day 17 of STZ administration", "result": 10}, {"measurement": "general condition", "setting": "[2]; day 18 of STZ administration", "result": 10}, {"measurement": "general condition", "setting": "[2]; day 19 of STZ administration", "result": 10}, {"measurement": "general condition", "setting": "[2]; day 20 of STZ administration", "result": 10}, {"measurement": "general condition", "setting": "[2]; day 21 of STZ administration", "result": 10}, {"measurement": "general condition", "setting": "[2]; day 22 of STZ administration", "result": 10}, {"measurement": "general condition", "setting": "[2]; day 23 of STZ administration", "result": 10}, {"measurement": "general condition", "setting": "[2]; day 24 of STZ administration", "result": 10}, {"measurement": "general condition", "setting": "[2]; day 25 of STZ administration", "result": 10}, {"measurement": "general condition", "setting": "[2]; day 26 of STZ administration", "result": 10}, {"measurement": "general condition", "setting": "[2]; day 27 of STZ administration", "result": 10}, {"measurement": "general condition", "setting": "[2]; day 28 of STZ administration", "result": 10}, {"measurement": "general condition", "setting": "[2]; day 29 of STZ administration", "result": 10}, {"measurement": "general condition", "setting": "[2]; day 30 of STZ administration", "result": 10}, {"measurement": "general condition", "setting": "[2]; day 31 of STZ administration", "result": 10}, {"measurement": "general condition", "setting": "[2]; day 32 of STZ administration", "result": 10}, {"measurement": "general condition", "setting": "[2]; day 33 of STZ administration", "result": 10}, {"measurement": "general condition", "setting": "[2]; day 34 of STZ administration", "result": 10}, {"measurement": "general condition", "setting": "[2]; day 35 of STZ administration", "result": 10}]}]}
